Legend:
I-Ed = I-Ed (Mus musculus, UniProt P01904+P01915); details: pH 5 as compared with pH 7; cited from earlier work
I-Ak = I-Ak (Mus musculus, UniProt P01910+P06343); assay: Peptide binding immunoassay; details: 250 μM unlabeled HEL(46-61) vs biotin-HEL(46-61), 68 h

Substance	apparent affinity (I-Ed)	apparent concentration (number) of peptide-binding sites (I-Ed)	effect on dissociation (I-Ed)	rate of association (I-Ed)	nonspecific signal remaining with unlabeled competitor (I-Ak)
GMNAWVAWRNR.CKGTDVY [HEL(104-120)]	increased	increased	no measurable effect	increased	–
NTDGSTDYGILQINSR [HEL(46-61)]	–	–	–	–	< 10 % of maximal absorbance

Source: PMC2119350 (The Journal of Experimental Medicine, 1992)
